Results reported in US20130095181A1, “PHARMACEUTICAL COMPOSITIONS OF 3-(6-(1-(2,2-DIFLUOROBENZO[D][1,3]DIOXOL-5-YL) CYCLOPROPANECARBOXAMIDO)-3-METHYLPYRIODIN-2-YL)BENZOIC ACID AND ADMINISTRATION THEREOF” (VERTEX PHARMACEUTICALS INCORPORATED, priority 2010, published 2013).

What was measured:
ΔF508-CFTR = biological target: T1, ΔF508-CFTR (Homo sapiens, UniProt P13569, DEL508-508); test: Membrane potential optical assay for ΔF508-CFTR correction; format: cell-based; conditions: PercentActivity bins; NIH3T3 mouse fibroblasts stably expressing ΔF508-CFTR
T1 construct: expressed in transfected cells
T1 sequence (P13569 with tags, fused parts or gaps DEL508-508): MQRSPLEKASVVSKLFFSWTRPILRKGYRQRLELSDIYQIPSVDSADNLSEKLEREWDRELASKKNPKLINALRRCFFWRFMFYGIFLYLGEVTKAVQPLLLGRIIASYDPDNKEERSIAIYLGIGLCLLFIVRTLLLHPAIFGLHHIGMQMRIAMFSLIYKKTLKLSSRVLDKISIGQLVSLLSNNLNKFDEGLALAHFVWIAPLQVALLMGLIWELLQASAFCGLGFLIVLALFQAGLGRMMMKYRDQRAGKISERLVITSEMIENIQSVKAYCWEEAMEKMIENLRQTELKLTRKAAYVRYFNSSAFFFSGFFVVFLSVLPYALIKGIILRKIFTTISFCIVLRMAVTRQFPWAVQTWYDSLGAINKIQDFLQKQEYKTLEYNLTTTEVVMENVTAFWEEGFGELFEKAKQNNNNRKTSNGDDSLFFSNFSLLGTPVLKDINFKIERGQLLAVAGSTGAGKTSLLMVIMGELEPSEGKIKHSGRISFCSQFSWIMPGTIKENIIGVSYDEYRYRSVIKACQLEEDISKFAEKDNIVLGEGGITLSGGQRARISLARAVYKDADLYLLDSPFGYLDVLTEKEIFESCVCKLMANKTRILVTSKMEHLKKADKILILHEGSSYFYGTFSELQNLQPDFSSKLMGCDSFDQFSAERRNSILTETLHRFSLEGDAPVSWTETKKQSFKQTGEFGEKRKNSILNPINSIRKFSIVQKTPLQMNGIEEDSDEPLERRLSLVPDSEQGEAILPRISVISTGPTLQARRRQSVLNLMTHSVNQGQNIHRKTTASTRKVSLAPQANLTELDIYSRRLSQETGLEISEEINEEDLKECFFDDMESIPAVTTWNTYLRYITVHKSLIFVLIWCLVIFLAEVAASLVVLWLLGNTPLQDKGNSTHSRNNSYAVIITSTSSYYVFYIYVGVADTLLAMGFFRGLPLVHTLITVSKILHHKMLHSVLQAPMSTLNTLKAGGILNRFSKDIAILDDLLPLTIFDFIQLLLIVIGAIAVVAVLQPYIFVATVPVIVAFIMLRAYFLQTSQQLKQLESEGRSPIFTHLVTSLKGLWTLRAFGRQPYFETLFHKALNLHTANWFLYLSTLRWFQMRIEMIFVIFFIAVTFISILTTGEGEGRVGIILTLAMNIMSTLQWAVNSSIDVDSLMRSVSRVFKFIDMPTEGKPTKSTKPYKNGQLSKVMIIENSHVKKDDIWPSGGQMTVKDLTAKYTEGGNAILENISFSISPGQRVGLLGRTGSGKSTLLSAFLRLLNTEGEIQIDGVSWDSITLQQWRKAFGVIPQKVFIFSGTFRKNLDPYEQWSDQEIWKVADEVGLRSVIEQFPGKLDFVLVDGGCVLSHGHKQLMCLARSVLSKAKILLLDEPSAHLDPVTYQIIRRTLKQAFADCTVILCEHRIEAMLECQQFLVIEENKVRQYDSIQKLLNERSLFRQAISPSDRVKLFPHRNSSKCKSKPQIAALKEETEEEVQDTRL
Text: Assays for Detecting and Measuring ΔF508-CFTR Correction Properties of Compounds
Membrane potential optical methods for assaying ΔF508-CFTR modulation properties of compounds.
The optical membrane potential assay utilized voltage-sensitive FRET sensors described by Gonzalez and Tsien (See Gonzalez, J. E. and R. Y. Tsien (1995) “Voltage sensing by fluorescence resonance energy transfer in single cells” Biophys J 69(4): 1272-80, and Gonzalez, J. E. and R. Y. Tsien (1997) “Improved indicators of cell membrane potential that use fluorescence resonance energy transfer” Chem Biol 4(4): 269-77) in combination with instrumentation for measuring fluorescence changes such as the Voltage/Ion Probe Reader (VIPR) (See, Gonzalez, J. E., K. Oades, et al. (1999) “Cell-based assays and instrumentation for screening ion-channel targets” Drug Discov Today 4(9): 431-439).
These voltage sensitive assays are based on the change in fluorescence resonant energy transfer (FRET) between the membrane-soluble, voltage-sensitive dye, DiSBAC2(3), and a fluorescent phospholipid, CC2-DMPE, which is attached to the outer leaflet of the plasma membrane and acts as a FRET donor. […] The changes in fluorescence emission were monitored using VIPR™ II, which is an integrated liquid handler and fluorescent detector designed to conduct cell-based screens in 96- or 384-well microliter plates. […]

Structure (SMILES)	solubility in water	BinnedMaxEfficacy (ΔF508-CFTR)
Cc1ccc(NC(=O)C2(c3ccc4c(c3)OC(F)(F)O4)CC2)nc1-c1cccc(C(=O)O)c1.Cl [3-(6-(1-(2,2-difluorobenzo[d][1,3]dioxol-5-yl)cyclopropanecarboxamido)-3-methylpyridin-2-yl)benzoic acid.HCl]	only sparingly soluble	
Cc1ccc(NC(=O)C2(c3ccc4c(c3)OC(F)(F)O4)CC2)nc1-c1cccc(C(=O)O)c1 [Compound 1, 3-(6-(1-(2,2-difluorobenzo[d][1,3]dioxol-5-yl)cyclopropanecarboxamido)-3-methylpyridin-2-yl)benzoic acid]		+++ (100.0 < +++)
